For 29 compounds, GI50 results are on record in US12479845B2, “Imidazopyridine derivative compounds and use of same” (HANMI PHARM. CO., LTD., priority 2019, dated 2025).

What is called GI50 is the concentration that inhibits growth by half. Read a low GI50 as more potent growth inhibition.

In this assay the test system is NCI-H1417 cells. Put plainly: Cell growth suppression test (CellTiter-Glo Luminescent Cell Viability Assay, 10 days treatment). The format is cell-based. Conditions: Homo sapiens, 240 h, treated for 10 days. How it is done:
Cell growth suppression effects of the synthesized compounds on NCI-H1417 cells were identified. The cells were treated with the synthesized compounds for 10 days. Then, in order to test the cell growth suppression, CellTiter-Glo Luminescent Cell Viability Assay (available from Promega, USA) was used. This test is to measure emission signals proportional to the number of ATPs based on a fixed amount of ATPs, which represents the presence of metabolically active cells, thereby determining the number of viable cells. The results are expressed as a Gl50 value. As for a control, GSK2879552 (available from GlaxoSmithKline USA) was used.

With `O=C(O)c1ccc(CN2CCC(CN[C@@H]3C[C@H]3c3ccccc3)CC2)cc1` [Control, GSK2879552, reference compound], the GI50 is 311 nM.
As for `CCN(CC)c1ccc(-n2c(-c3ccc(C#N)c(F)c3)nc3c(N4CCC[C@@H](N)C4)ccnc32)cc1` [Example 21, (R)-4-(7-(3-aminopiperidine-1-yl)-3-(4-(diethylamino)phenyl)-3H-imidazo[4,5-b]pyridine-2-yl)-2-fluorobenzonitrile], the figure is 27 nM; as for `N#Cc1ccc(-c2nc3c(N4CCC[C@@H](N)C4)ccnc3n2-c2ccc(OC3CCCC3)cc2F)cc1F` [Example 30], 62 nM.
`N#Cc1ccc(-c2nc3c(N4CCC[C@@H](N)C4)ccnc3n2-c2ccc(N3CCOCC3)cc2F)cc1F` [Example 33, (R)-4-(7-(3-aminopiperidine-1-yl)-3-(2-fluoro-4-morpholinophenyl)-3H-imidazo[4,5-b]pyridine-2-yl)-2-fluorobenzonitrile] registered a concentration for 50% growth inhibition (GI50) of 44 nM.
In the case of `CN1CCN(c2ccc(-n3c(-c4ccc(C#N)c(F)c4)nc4c(N5CCC[C@@H](N)C5)ccnc43)c(F)c2)CC1` [Example 34] it was 101 nM.
`N#Cc1ccc(-c2nc3c(N4CCC[C@@H](N)C4)ccnc3n2-c2cccc(OCCN3CCOCC3)c2)cc1F` [Example 37, (R)-4-(7-(3-aminopiperidine-1-yl)-3-(3-(2-morpholinoethoxy)phenyl)-3H-imidazo[4,5-b]pyridine-2-yl)-2-fluorobenzonitrile] yielded a concentration for 50% growth inhibition (GI50) of 148 nM. The GI50 values of the last two compounds are within 1.5-fold of each other.
`N#Cc1ccc(-c2nc3c(N4CCC[C@@H](N)C4)ccnc3n2-c2ccc(C(=O)N3CCOCC3)cc2)cc1F` [Example 38, (R)-4-(7-(3-aminopiperidine-1-yl)-3-(4-(morpholino-4-carbonyl)phenyl)-3H-imidazo[4,5-b]pyridine-2-yl)-2-fluorobenzonitrile] gave a GI50 of 612 nM.
In the case of `N#Cc1ccc(-c2nc3c(N4CCC[C@@H](N)C4)ccnc3n2-c2ccc(O)cc2)cc1F` [Example 40, (R)-4-(7-(3-aminopiperidine-1-yl)-3-(4-hydroxyphenyl)-3H-imidazo[4,5-b]pyridine-2-yl)-2-fluorobenzonitrile] it was 42 nM; in that of `N#Cc1ccc(-c2nc3c(N4CCC[C@@H](N)C4)ccnc3n2-c2ccc3c(c2)CCC3)cc1F` [Example 42, (R)-4-(7-(3-aminopiperidine-1-yl)-3-(2,3-dihydro-1H-indene-5-yl)-3H-imidazo[4,5-b]pyridine-2-yl)-2-fluorobenzonitrile], 26 nM; in that of `CC(C)c1ccc(-n2c(-c3ccc(C#N)c(F)c3)nc3c(N4CCC[C@@H](N)C4)ccnc32)cc1` [Example 43, (R)-4-(7-(3-aminopiperidine-1-yl)-3-(4-isopropylphenyl)-3H-imidazo[4,5-b]pyridine-2-yl)-2-fluorobenzonitrile], 60 nM.
As for `Cn1ccc2cc(-n3c(-c4ccc(C#N)c(F)c4)nc4c(N5CCC[C@@H](N)C5)ccnc43)ccc21` [Example 44, (R)-4-(7-(3-aminopiperidine-1-yl)-3-(1-methyl-1H-indole-5-yl)-3H-imidazo(4,5-b)pyridine-2-yl)-2fluorobenzonitrile], the figure is 171 nM.
Regarding `Cc1ccc(-n2c(-c3ccc(C#N)c(F)c3)nc3c(N4CCC[C@@H](N)C4)ccnc32)nc1` [Example 45, (R)-4-(7-(3-aminopiperidine-1-yl)-3-(5-methylpyridine-2-yl)-3H-imidazo[4,5-b]pyridine-2-yl)-2-fluorobenzonitrile], the GI50 was determined as 171 nM.
In the case of `N#Cc1ccc(-c2nc3c(N4CCC[C@@H](N)C4)ccnc3n2-c2ccc(C3CCCCC3)cc2)cc1F` [Example 46, (R)-4-(7-(3-aminopiperidine-1-yl)-3-(4-cyclohexylphenyl)-3H-imidazo[4,5-b]pyridine-2-yl)-2-fluorobenzonitrile] it was 303 nM; in that of `C=Cc1cccc(-n2c(-c3ccc(C#N)c(F)c3)nc3c(N4CCC[C@@H](N)C4)ccnc32)c1` [Example 47, (R)-4-(7-(3-aminopiperidine-1-yl)-3-(3-vinylphenyl)-3H-imidazo[4,5-b]pyridine-2-yl)-2-fluorobenzonitrile], 360 nM; in that of `COCCCN(C)c1ccc(-n2c(-c3ccc(C#N)c(F)c3)nc3c(N4CCC[C@@H](N)C4)ccnc32)cc1` [Example 48, (R)-4-(7-(3-aminopiperidine-1-yl)-3-(4-((3-methoxypropyl)(methyl)amino)phenyl)-3H-imidazo[4,5-b]pyridine-2-yl)-2-fluorobenzonitrile], 23 nM.
As for `CCCCCCc1ccc(-n2c(-c3ccc(C#N)c(F)c3)nc3c(N4CCC[C@@H](N)C4)ccnc32)cc1` [Example 51, (R)-4-(7-(3-aminopiperidine-1-yl)-3-(4-hexylphenyl)-3H-imidazo[4,5-b]pyridine-2-yl)-2-fluorobenzonitrile], the 50% growth inhibitory concentration (GI50) was found to be 242 nM. This GI50 lies about 11-fold higher than the previous one.
In the case of `CO[C@H]1CCN(c2ccc(-n3c(-c4ccc(C#N)cc4F)nc4c(N5CCC[C@@H](N)C5)ccnc43)c(F)c2)C1` [Example 52, 4-(7-((R)-3-aminopiperidine-1-yl)-3-(2-fluoro-4-((S)-3-methoxypyrrolidine-1-yl)phenyl)-3H-imidazo[4,5-b]pyridine-2-yl)-3-fluorobenzonitrile] it was 30 nM; in that of `COc1cc(C#N)ccc1-c1nc2c(N3CCC[C@@H](N)C3)ccnc2n1-c1ccc(N2CC[C@H](OC)C2)cc1F` [Example 53, 4-(7-((R)-3-aminopiperidine-1-yl)-3-(2-fluoro-4-((S)-3-methoxypyrrolidine-1-yl)phenyl)-3H-imidazo[4,5-b]pyridine-2-yl)-3-methoxybenzonitrile], above 1000 nM.
`Cn1ccc2cc(-n3c(-c4ccc(C#N)c(F)c4)nc4c(N5CCC[C@@H](N)C5)ccnc43)cnc21` [Example 54, (R)-4-(7-(3-aminopiperidine-1-yl)-3-(1-methyl-1H-pyrrolo[2,3-b]pyridine-5-yl)-3H-imidazo[4,5-b]pyridine-2-yl)-2-fluorobenzonitrile] displayed a GI50 of 21 nM.
As for `Cn1ncc2cc(-n3c(-c4ccc(C#N)c(F)c4)nc4c(N5CCC[C@@H](N)C5)ccnc43)ccc21` [Example 55, (R)-4-(7-(3-aminopiperidine-1-yl)-3-(1-methyl-1H-indazole-5-yl)-3H-imidazo[4,5-b]pyridine-2-yl)-2-fluorobenzonitrile], the figure is 7.9 nM; as for `CO[C@H]1CCCN(c2ccc(-n3c(-c4ccc(C#N)c(F)c4)nc4c(N5CCC[C@@H](N)C5)ccnc43)c(F)c2)C1` [Example 56], 14 nM.
In the case of `CN(C)C1CCN(c2ccc(-n3c(-c4ccc(C#N)c(F)c4)nc4c(N5CCC[C@@H](N)C5)ccnc43)c(F)c2)C1` (stereo partly drawn) [Example 57, 4-(7-((R)-3-aminopiperidine-1-yl)-3-(4-(3-(dimethylamino)pyrrolidine-1-yl)-2-fluorophenyl)-3H-imidazo[4,5-b]pyridine-2-yl)-2-fluorobenzonitrile] it was 53 nM; in that of `N#Cc1ccc(-c2nc3c(N4CCC[C@@H](N)C4)ccnc3n2-c2ccc3scnc3c2)cc1F` [Example 58, (R)-4-(7-(3-aminopiperidine-1-yl)-3-(benzo[d]thiazole-5-yl)-3H-imidazo[4,5-b]pyridine-2-yl)-2-fluorobenzonitrile], 64 nM.
As for `CO[C@H]1CCN(c2ccc(-n3c(-c4ccc(C#N)c(F)c4)nc4c(N5C6CCC5CC(N)C6)ccnc43)c(F)c2)C1` (stereo partly drawn) [Example 63, 4-(7-(3-amino-8-azabicyclo[3.2.1]octane-8-yl)-3-(2-fluoro-4-((S)-3-methoxypyrrolidine-1-yl)phenyl)-3H-imidazo[4,5-b]pyridine-2-yl)-2-fluorobenzonitrile], halving of growth (GI50) required 290 nM.
Regarding `CO[C@H]1CCN(c2ccc(-n3c(-c4ccc(C#N)c(F)c4)nc4c(N5CCC6(CCNC6)C5)ccnc43)c(F)c2)C1` (stereo partly drawn) [Example 65, 2-fluoro-4-(3-(2-fluoro-4-((S)-3-methoxypyrrolidine-1-yl)phenyl)-7-(2,7-diazaspiro[4.4]nonane-2-yl)-3H-imidazo[4,5-b]pyridine-2-yl)benzonitrile], the GI50 was 39 nM. This GI50 lies about 7.4-fold lower than the previous one.
The compound `CO[C@H]1CCN(c2ccc(-n3c(-c4ccc(C#N)c(F)c4)nc4c(N5CCC6(CC5)CNC6)ccnc43)c(F)c2)C1` [Example 66, (S)-2-fluoro-4-(3-(2-fluoro-4-(3-methoxypyrrolidine-1-yl)phenyl)-7-(2,7-diazaspiro[3.5]nonane-7-yl)-3H-imidazo[4,5-b]pyridine-2-yl)benzonitrile] came in with a 50% growth inhibitory concentration (GI50) of 23 nM.
As for `CO[C@H]1CCN(c2ccc(-n3c(-c4ccc(C#N)c(F)c4)nc4c(N5CC6COCC6C5)ccnc43)c(F)c2)C1` (stereo partly drawn) [Example 68, 2-fluoro-4-(3-(2-fluoro-4-((S)-3-methoxypyrrolidine-1-yl)phenyl)-7-(tetrahydro-1H-furo[3,4-c]pyrrole-5(3H)-yl)-3H-imidazo[4,5-b]pyridine-2-yl)benzonitrile], the figure is above 1000 nM.
As for `CO[C@H]1CCN(c2ccc(-n3c(-c4ccc(C#N)c(F)c4)nc4c(N5CC6(CNC6)C5)ccnc43)c(F)c2)C1` [Example 69, (S)-2-fluoro-4-(3-(2-fluoro-4-(3-methoxypyrrolidine-1-yl)phenyl)-7-(2,6-diazaspiro[3.3]heptane-2-yl)-3H-imidazo[4,5-b]pyridine-2-yl) benzonitrile], the figure is above 1000 nM.
As to `CO[C@H]1CCN(c2ccc(-n3c(-c4ccc(C#N)c(F)c4)nc4c(N5CCC6(CCNCC6)CC5)ccnc43)c(F)c2)C1` [Example 70, (S)-2-fluoro-4-(3-(2-fluoro-4-(3-methoxypyrrolidine-1-yl)phenyl)-7-(3,9-diazaspiro[5.5]undecan-3-yl)-3H-imidazo[4,5-b]pyridine-2-yl) benzonitrile], the 50% growth inhibitory concentration (GI50) was 34 nM.
